System: broiler chickens
Test: Example 6: effect of unithiol on productivity and meat quality of broiler chickens
Assay type: in vivo
Design: average daily gain: unit not given here
Protocol: An experiment was conducted, on the inventors' initiative, on the experimental base of the All-Russia research and technological institute for aviculture (VNITIP) during which a study was given to the following tasks: • determination of an effect produced by unithiol (DMPS) on the productivity and meat quality of broiler chickens; • effect produced by unithiol on the accumulation of heavy metal compounds (mercury, cadmium, lead) in various tissues of poultry.
The experiment was carried out in a vivarium on broiler chickens of one cross. Poultry was grown in cell batteries from one day to six-week age. The operating parameters and feeding level met the recommendation VNITIP 1999. The experiment was conducted according to the diagram on Table 1.
The poultry population: 1 and 2 groups, 35 heads each; 3,4,5 groups—6 heads each.
1. Chicks' individual live weight; weighing at the age of one day, 2-, 4-, 6 weeks.
2. Average daily live weight increase of the broilers over a 6-week period.
3. Safety of the poultry population, the daily record keeping of the broilers lost, with the causes of murrain established.
4. Feathering conditions, individual evaluation.
5. Feed consumption over a period of growing by way of the daily record keeping and weighing of specifies feed for each and every group, as calculated per head and per kg of live weight increase.
6. Dressed small carcass mass, individually weighing in slaughtering at the age of 6 weeks.
7. Dressed yield of meat as calculated.
8. Classification of small carcasses according to GOST 25391-82.
9. Meat qualities by way of anatomically dressing the small carcasses of broilers.
10. Chemical meat composition on terms of a dry substance.
12. Fatty acid meat composition.

[1] = Group 2: BR + 17 mg unithiol/kg feed days 15-42
[2] = Group 4: BR + heavy metals + 17 mg unithiol/kg feed, both days 15-42
[3] = Group 5: BR + heavy metals days 15-35, 34 mg unithiol/kg feed days 36-42
[4] = age 4 weeks, Group 2: BR + 17 mg unithiol/kg feed days 15-42
[5] = age 4 weeks, Group 4: BR + heavy metals + 17 mg unithiol/kg feed, both days 15-42
[6] = age 6 weeks, Group 2: BR + 17 mg unithiol/kg feed days 15-42
[7] = age 6 weeks, Group 4: BR + heavy metals + 17 mg unithiol/kg feed, both days 15-42
[8] = age 6 weeks, Group 5: BR + heavy metals days 15-35, 34 mg unithiol/kg feed days 36-42

O=S(=O)([O-])CC(S)CS.[Na+] (stereo not shown) [Unithiol, Sodium 2,3-Dimercaptopropane sulfonate]
feathering conditions (2nd group): best value of feathering conditions | feed remuneration with products (4th and 5th groups, unithiol as additive in feed): improved feed remuneration with products | organoleptic indices of meat (taste, organoleptic qualities of broths) (5nd group, unithiol additionally to feed): highest value as to organoleptic indices | rates of growth (Group 2: 17 mg/kg of feed since 2-week age): higher rates of growth | Dressed carcasses, weight [1]: 1310 gr | Feed consumption per head [1]: 3670 gr | Feed consumption per kg of gain in live weight [1]: 1.98 kg | Inflamed sores [1]: 14.2% | Meat category 1 [1]: 88.6% | Meat category 2 [1]: 11.4% | Meat yield [1]: 69.3% | chemical meat composition: Ash [1]: 0.99% | chemical meat composition: Dry substance [1]: 28.46% | chemical meat composition: Fat [1]: 7.79% | chemical meat composition: Protein [1]: 19.68% | chemical meat composition: Water [1]: 70.4% | fatty acid meat composition: Fatty acids (total) [1]: 29.58 mg per 100 gr of product | fatty acid meat composition: Heptadecanoic [1]: 0.24 mg per 100 gr of product | fatty acid meat composition: Heptadecynoic [1]: 0.14 mg per 100 gr of product | fatty acid meat composition: Isomyristic [1]: 0.16 mg per 100 gr of product | fatty acid meat composition: Isopentadecanoic [1]: 0.14 mg per 100 gr of product | fatty acid meat composition: Linoleic [1]: 6.41 mg per 100 gr of product | fatty acid meat composition: Linolenic [1]: 0.29 mg per 100 gr of product | fatty acid meat composition: Myristic [1]: 0.22 mg per 100 gr of product | fatty acid meat composition: Oleic [1]: 0.13 mg per 100 gr of product | fatty acid meat composition: Palmitic [1]: 7.05 mg per 100 gr of product | fatty acid meat composition: Palmitoleic [1]: 2.25 mg per 100 gr of product | fatty acid meat composition: Pentadecanoic [1]: 0.12 mg per 100 gr of product | fatty acid meat composition: Polyunsaturated [1]: 6.70 mg per 100 gr of product | fatty acid meat composition: Saturated and monounsaturated [1]: 22.88 mg per 100 gr of product | fatty acid meat composition: Stearic [1]: 2.44 mg per 100 gr of product | Dressed carcasses, weight [2]: 1217 gr | Feed consumption per head [2]: 3750 gr | Feed consumption per kg of gain in live weight [2]: 2.13 kg | Meat category 1 [2]: 66.7% | Meat category 2 [2]: 33.3% | Meat yield [2]: 67.6% | chemical meat composition: Ash [2]: 1.07% | chemical meat composition: Dry substance [2]: 25.71% | chemical meat composition: Fat [2]: 2.72% | chemical meat composition: Protein [2]: 21.92% | chemical meat composition: Water [2]: 73.0% | fatty acid meat composition: Fatty acids (total) [2]: 26.96 mg per 100 gr of product | fatty acid meat composition: Heptadecanoic [2]: 0.41 mg per 100 gr of product | fatty acid meat composition: Heptadecynoic [2]: 0.11 mg per 100 gr of product | fatty acid meat composition: Isomyristic [2]: 0.06 mg per 100 gr of product | fatty acid meat composition: Isopentadecanoic [2]: 0.03 mg per 100 gr of product | fatty acid meat composition: Linoleic [2]: 6.30 mg per 100 gr of product | fatty acid meat composition: Linolenic [2]: 0.25 mg per 100 gr of product | fatty acid meat composition: Myristic [2]: 0.15 mg per 100 gr of product | fatty acid meat composition: Oleic [2]: 8.39 mg per 100 gr of product | fatty acid meat composition: Palmitic [2]: 6.13 mg per 100 gr of product | fatty acid meat composition: Palmitoleic [2]: 1.71 mg per 100 gr of product | fatty acid meat composition: Pentadecanoic [2]: 0.05 mg per 100 gr of product | fatty acid meat composition: Polyunsaturated [2]: 6.55 mg per 100 gr of product | fatty acid meat composition: Saturated and monounsaturated [2]: 20.41 mg per 100 gr of product | fatty acid meat composition: Stearic [2]: 3.37 mg per 100 gr of product | Dressed carcasses, weight [3]: 1215 gr | Feed consumption per head [3]: 3780 gr | Feed consumption per kg of gain in live weight [3]: 2.17 kg | Meat category 1 [3]: 60.0% | Meat category 2 [3]: 40.0% | Meat yield [3]: 68.3% | chemical meat composition: Ash [3]: 1.14% | chemical meat composition: Dry substance [3]: 25.18% | chemical meat composition: Fat [3]: 2.52% | chemical meat composition: Protein [3]: 21.52% | chemical meat composition: Water [3]: 73.28% | fatty acid meat composition: Fatty acids (total) [3]: 26.71 mg per 100 gr of product | fatty acid meat composition: Heptadecanoic [3]: 0.14 mg per 100 gr of product | fatty acid meat composition: Heptadecynoic [3]: 0.08 mg per 100 gr of product | fatty acid meat composition: Isomyristic [3]: 0.06 mg per 100 gr of product | fatty acid meat composition: Isopentadecanoic [3]: 0.06 mg per 100 gr of product | fatty acid meat composition: Linoleic [3]: 6.54 mg per 100 gr of product | fatty acid meat composition: Linolenic [3]: 0.18 mg per 100 gr of product | fatty acid meat composition: Myristic [3]: 1.29 mg per 100 gr of product | fatty acid meat composition: Oleic [3]: 7.40 mg per 100 gr of product | fatty acid meat composition: Palmitic [3]: 5.73 mg per 100 gr of product | fatty acid meat composition: Palmitoleic [3]: 1.59 mg per 100 gr of product | fatty acid meat composition: Pentadecanoic [3]: 0.07 mg per 100 gr of product | fatty acid meat composition: Polyunsaturated [3]: 6.72 mg per 100 gr of product | fatty acid meat composition: Saturated and monounsaturated [3]: 19.99 mg per 100 gr of product | fatty acid meat composition: Stearic [3]: 3.57 mg per 100 gr of product | average daily gain (age 1-6 weeks, Group 2: BR + 17 mg unithiol/kg feed days 15-42): 44.0 | average daily gain (age 1-6 weeks, Group 4: BR + heavy metals + 17 mg unithiol/kg feed, both days 15-42): 41.8 | average daily gain (age 1-6 weeks, Group 5: BR + heavy metals days 15-35, 34 mg unithiol/kg feed days 36-42): 41.4 | average daily gain (age 2-4 weeks, Group 2: BR + 17 mg unithiol/kg feed days 15-42): 47.1 | average daily gain (age 2-4 weeks, Group 4: BR + heavy metals + 17 mg unithiol/kg feed, both days 15-42): 42.7 | average daily gain (age 4-6 weeks, Group 2: BR + 17 mg unithiol/kg feed days 15-42): 64.1 | average daily gain (age 4-6 weeks, Group 4: BR + heavy metals + 17 mg unithiol/kg feed, both days 15-42): 62.1 | average daily gain (age 4-6 weeks, Group 5: BR + heavy metals days 15-35, 34 mg unithiol/kg feed days 36-42): 64.2 | live weight [4]: 993.4 grams | safety of the poultry population [4]: 100% | live weight [5]: 930.0 grams | safety of the poultry population [5]: 100% | live weight [6]: 1890.5 grams | safety of the poultry population [6]: 100% | live weight [7]: 1880.0 grams | safety of the poultry population [7]: 100% | live weight [8]: 1780.0 grams | safety of the poultry population [8]: 83.3% | dressed yield of meat and fatness (application of unithiol): highest level of the dressed yield of meat and also good fatness | chemical and fatty acid meat composition (unithiol in the composition of feed): increased polyunsaturated fatty acid content in chicken meat

From US7820196B2, “Physiologically active agents containing vicinal dithioglycols and use thereof in various branches of economy” (priority 1999, dated 2010)
